Laboratory results: US20130331368A1, “METHOD OF TREATING HEPATOCELLULAR CARCINOMA” (Niiki Pharma Acquisition Corp. 2, priority 2011, published 2013)
Values after ≈ are worked out from the molar mass of the structure shown. Like-named read-outs stand apart in the source and are kept apart here.

What was measured:
HepG2 [1] = experiment: Literature IC50 in HepG2 (Kogure et al.); format: cell-based, human; conditions: ratio of literature IC50 values (Kogure et al.)
Experimental: In addition, the IC50 values of 5-FU and cisplatin in the Hep3B and HepG2 cell lines were obtained from Kogure et al., Cancer Chemother. Pharmacol., 53(4):296-304 (2004). The ratios of IC50 values of sodium trans-[tetrachlorobis(1H-indazole)ruthenate(III)] in a cell line sensitive to one of the other drugs and a cell line insensitive to the same drug were calculated. The results are shown in Tables 1-5 below (“Test Drug” in the tables denotes sodium trans-[tetrachlorobis(1H-indazole)ruthenate(III)]). […] As such, sodium trans-[tetrachlorobis(1H-indazole)ruthenate(III)] is potentially effective in treating hepatocellular carcinoma resistant to such other drugs.

Hep3B [2] = conditions: from Kogure et al. 2004; cited from earlier work
HepG2 [3] = conditions: from Kogure et al. 2004; cited from earlier work
Hep3B [4] = experiment: MTT cytotoxicity assay, Hep3B cell line; format: cell-based, human
Experimental: (§1) To test the activities of sodium trans-[tetrachlorobis(1H-indazole)ruthenate(III)] (“drug”), MTT assays were performed using selected hepatocellular carcinoma cell lines. Cells were plated (2×10^3 cells in 100 μl/well) in 96-well plates and allowed to recover for 24 hours. The drug was added in another 100 μl growth medium and incubated with cultured cells for 3 hours before the cell culture medium was replaced to remove the drug. Cell death was measured 72 hours after the initial incubation by MTT assay following the manufacturer's recommendations (EZ4U, Biomedica, Vienna, Austria).
(§2) In addition, the IC50 values of 5-FU and cisplatin in the Hep3B and HepG2 cell lines were obtained from Kogure et al., Cancer Chemother. Pharmacol., 53(4):296-304 (2004). The ratios of IC50 values of sodium trans-[tetrachlorobis(1H-indazole)ruthenate(III)] in a cell line sensitive to one of the other drugs and a cell line insensitive to the same drug were calculated.

HepG2 [5] = experiment: MTT cytotoxicity assay, HepG2 cell line; format: cell-based, human; conditions: for IC50: HepG2; for IC50 Ratio (HepG2/Hep3B): IC50 in HepG2 divided by IC50 in Hep3B
Experimental: as §1, §2

HCC1.2 = experiment: MTT cytotoxicity assay, HCC1.2 cell line; format: cell-based, human; conditions: 3 h drug incubation, MTT at 72 h
Experimental: as §1

HCC3 = experiment: MTT cytotoxicity assay, HCC3 cell line; format: cell-based, human; conditions: for IC50: HCC3, MTT at 72 h; for IC50 Ratio (HCC3/B1): IC50 in HCC3 divided by IC50 in B1
Experimental: as §1, §2

B1 = experiment: MTT cytotoxicity assay, B1 cell line; format: cell-based, human
Experimental: as §1, §2

HCC2 = experiment: MTT cytotoxicity assay, HCC2 cell line; format: cell-based, human; conditions: for IC50: HCC2, MTT; for IC50 Ratio (HCC2/HCC3): IC50 in HCC2 divided by IC50 in HCC3
Experimental: as §1, §2

[6] = tested on: hepatocellular carcinoma cell lines; experiment: MTT cytotoxicity assay, mean over selected hepatocellular carcinoma cell lines; format: cell-based, human; conditions: mean over tested HCC cell lines, after 72 hours
Experimental: as §1

Hep3B cells [7] = experiment: Apoptosis induction, DAPI staining of nuclear morphology; format: cell-based, human; conditions: 24 hours of drug treatment
Experimental: To evaluate the mechanisms underlying the drug activity, apoptosis induction as well as impact on cell cycle distribution and proliferation of Hep3B cells were evaluated (FIG. 2). Specifically, the hepatoma cell line Hep3B was purchased from American Type Culture Collection (ATCC), Manassas, Va. All cells were grown in RPMI 1640 supplemented with 10% FCS. Cultures were regularly checked for Mycoplasma contamination. After 24 hours of drug treatment, cells were harvested, washed in PBS and cytospins were prepared. After fixation with a 1:1 methanol/acetone solution, slides were stained with 4′,6-diamidino-2-phenylindole (DAPI) containing antifade solution (Vector Laboratories, Inc., USA). Nuclear morphology of cells was examined using a Laica DMRXA fluorescence microscope (Laica Mikroskopie and System, Wetzlar, Germany) equipped with appropriate epifluorescence filters and a COHU charge-douples device camera. Duplicate slides were prepared for each cell type/treatment group and 300-500 cells were counted for each sample.
Treatment with sodium trans-[tetrachlorobis(1H-indazole)ruthenate(III)] led to typical morphological signs of programmed cell death like cell shrinkage, chromatin condensation and formation of apoptotic bodies. […]

PARP = PARP cleavage by Western blot; format: cell-based, human; conditions: 24 hours of drug treatment
Experimental: Treatment with sodium trans-[tetrachlorobis(1H-indazole)ruthenate(III)] led to typical morphological signs of programmed cell death like cell shrinkage, chromatin condensation and formation of apoptotic bodies. Apoptotic cell death induced by sodium trans-[tetrachlorobis(1H-indazole)ruthenate(III)] was further characterized by PARP cleavage examined by Western Blot Analyses. Specifically, after 24 hours of drug treatment, protein extracts were prepared and Western blot analyses performed. Rabbit Anti-PARP from Apoptosis Sampler kit (Cell Signaling Technology, Beverly, Mass.) (dilution 1:1000)[…]) was used. For loading control β-actin monoclonal mouse AC-15 (Sigma, USA, dilution: 1:1000) was used. All secondary peroxidase-labeled antibodies were purchased from Santa Cruz Biotechnology and used at working dilution of 1:10000.

Hep3B cells [8] = experiment: Mitochondrial membrane depolarization, JC-1 staining and FACS; format: cell-based, human
Hep3B cells [9] = experiment: DNA synthesis rate by 3H-thymidine incorporation; format: cell-based, human
Hep3B cells [10] = experiment: Cell cycle distribution, PI staining and FACS; format: cell-based, human; conditions: 24 hours of treatment, PI staining, FACS
[11] = tested on: stress kinase P38 and extracellular signal-regulated kinase (ERK); experiment: Phosphorylation of P38 and ERK; format: cell-based, human; conditions: 24 hours of treatment
Hep3B cells [12] = conditions: for increase in life span: versus control group (33 days)
Experimental: Separately, the activity of sodium trans-[tetrachlorobis(1H-indazole)ruthenate(III)] against Hep3B cells was evaluated in xenograft experiments using female SCID mice as compared to the standard therapy sorafenib. Sodium trans-[tetrachlorobis(1H-indazole)ruthenate(III)] was administered IV at 30 mg/kg once a week for two weeks. Sorafenib was administered P.O. at 25 mg/kg daily five times a week for two weeks.

[13] = tested on: colon cancer cell line SW480; conditions: Kapitza et al. 2005; cited from earlier work
[14] = tested on: colon cancer cell line HT29; conditions: Kapitza et al. 2005; cited from earlier work
hepatocellular carcinoma = conditions: late stage HCC patients with well preserved liver function; cited from earlier work
[15] = Hep3B xenograft, female SCID mice

| SMILES | IC50 Ratio (HepG2/Hep3B) (HepG2 [1]) | IC50 (Hep3B [2]) | IC50 (HepG2 [3]) | IC50 Ratio (HepG2/Hep3B) (HepG2 [5]) | IC50 (HCC3) | IC50 Ratio (HCC3/B1) (HCC3) | IC50 (HCC2) | IC50 Ratio (HCC2/HCC3) (HCC2) | mean survival (Hep3B cells [12]; [15]) | increase in life span (Hep3B cells [12]; Hep3B xenograft) | also measured |
| --- | --- | --- | --- | --- | --- | --- | --- | --- | --- | --- | --- |
| O=c1[nH]cc(F)c(=O)[nH]1 [5-FU] | >5.2 | 227 µg/mL (≈ 1750 µM) | 17.2 µg/mL (≈ 132 µM) | – | – | – | – | – | – | – | – |
| COc1cccc2c1C(=O)c1c(O)c3c(c(O)c1C2=O)C[C@@](O)(C(=O)CO)C[C@@H]3O[C@H]1C[C@H](N)[C@H](O)[C@H](C)O1 [Doxorubicin, doxorubicin, reference compound] | – | – | – | >3.6 | – | – | – | – | – | – | IC50 (Hep3B [4]; Homo sapiens): 0.0693 µM; IC50 (HepG2 [5]; Homo sapiens): > 0.25 µM |
| N.N.[Cl][Pt][Cl] [Cisplatin, cisplatin] | >5.2 | 3.75 µg/mL | 19.4 µg/mL | – | – | – | – | – | – | – | – |
| [Cl][Ru-]([Cl])([Cl])[Cl].[Na+].c1ccc2[nH]ncc2c1.c1ccc2[nH]ncc2c1 [sodium trans-[tetrachlorobis(1H-indazole)ruthenate(III)]] | – | – | – | 1.1 | 67.5 µM | 0.8 | 129 µM | 1.9 | 80 days | 2.4 fold | IC50 (HCC1.2): 62.9 µM; IC50 (B1): 83.4 µM; IC50 (Hep3B [4]; MTT): 167 µM; IC50 (HepG2 [5]; MTT): 189 µM; IC50 [6]: 124 µM; apoptosis induction (Hep3B cells [7]): significant apoptosis; PARP cleavage (PARP): PARP cleavage induced; cells with mitochondrial membrane depolarization (Hep3B cells [8]): increase of cells with mitochondrial membrane depolarization; DNA synthesis rate (Hep3B cells [9]): significantly reduce DNA synthesis rate; cell cycle distribution (Hep3B cells [10]): increase of cells in G2/M phase; phosphorylation of P38 and ERK [11]: strong phosphorylation; tumor growth (Hep3B cells [12]; Hep3B xenograft, female SCID mice, IV 30 mg/kg once a week for two weeks): effectively suppressed the growth of tumor; tolerability (Hep3B cells [12]; female SCID mice, IV 30 mg/kg once a week for two weeks): well tolerated; killing of tumor cells [13]: effective in killing tumor cells; killing of tumor cells [14]: effective in killing tumor cells |
| CNC(=O)c1cc(Oc2ccc(NC(=O)Nc3ccc(Cl)c(C(F)(F)F)c3)cc2)ccn1 [Sorafenib, sorafenib, reference compound] | – | – | – | – | – | >12.5 | – | – | 60 days | 1.9 fold | IC50 (HCC3; Homo sapiens): > 10 µM; IC50 (B1; Homo sapiens): 0.8 µM; added lifespan (hepatocellular carcinoma): two |
| O=C1[O][Pt]2([NH][C@@H]3CCCC[C@H]3[NH]2)[O]C1=O [Oxaliplatin, oxaliplatin, reference compound] | – | – | – | – | 0.41 µM | – | 4.05 µM | >9.9 | – | – | – |
